In ChEMBL document CHEMBL3132769, “Fragment growing to retain or alter the selectivity of anchored kinase hinge-binding fragments” (Medchemcomm, 2014):

Legend:
[1] = biological target: T1, Mitogen-activated protein kinase 13 (Homo sapiens) (UniProt O15264); assay: Inhibition of human full length p38 delta expressed in Escherichia coli cell assessed as substrate phosphorylation using fluorescence-labelled peptides as substrate at 0.2 uM after 90 mins by microfluidic peptide phosphorylation assay
T1 sequence (whole entry): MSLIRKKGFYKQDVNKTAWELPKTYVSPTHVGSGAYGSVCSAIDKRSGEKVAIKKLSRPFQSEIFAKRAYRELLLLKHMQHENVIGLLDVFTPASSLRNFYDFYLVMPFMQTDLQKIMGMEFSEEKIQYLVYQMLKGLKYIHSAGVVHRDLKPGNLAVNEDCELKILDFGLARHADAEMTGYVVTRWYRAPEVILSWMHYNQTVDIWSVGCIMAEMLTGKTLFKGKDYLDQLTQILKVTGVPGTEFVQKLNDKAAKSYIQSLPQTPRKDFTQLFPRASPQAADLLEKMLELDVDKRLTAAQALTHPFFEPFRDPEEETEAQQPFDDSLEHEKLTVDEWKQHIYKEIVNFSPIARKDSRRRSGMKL

[2] = biological target: T2, Serine/threonine-protein kinase D1 (Homo sapiens) (UniProt Q15139); assay: Inhibition of human full length PKD1 expressed in baculovirus assessed as substrate phosphorylation using fluorescence-labelled peptides as substrate at 0.2 uM after 90 mins by microfluidic peptide phosphorylation assay
T2 sequence (whole entry): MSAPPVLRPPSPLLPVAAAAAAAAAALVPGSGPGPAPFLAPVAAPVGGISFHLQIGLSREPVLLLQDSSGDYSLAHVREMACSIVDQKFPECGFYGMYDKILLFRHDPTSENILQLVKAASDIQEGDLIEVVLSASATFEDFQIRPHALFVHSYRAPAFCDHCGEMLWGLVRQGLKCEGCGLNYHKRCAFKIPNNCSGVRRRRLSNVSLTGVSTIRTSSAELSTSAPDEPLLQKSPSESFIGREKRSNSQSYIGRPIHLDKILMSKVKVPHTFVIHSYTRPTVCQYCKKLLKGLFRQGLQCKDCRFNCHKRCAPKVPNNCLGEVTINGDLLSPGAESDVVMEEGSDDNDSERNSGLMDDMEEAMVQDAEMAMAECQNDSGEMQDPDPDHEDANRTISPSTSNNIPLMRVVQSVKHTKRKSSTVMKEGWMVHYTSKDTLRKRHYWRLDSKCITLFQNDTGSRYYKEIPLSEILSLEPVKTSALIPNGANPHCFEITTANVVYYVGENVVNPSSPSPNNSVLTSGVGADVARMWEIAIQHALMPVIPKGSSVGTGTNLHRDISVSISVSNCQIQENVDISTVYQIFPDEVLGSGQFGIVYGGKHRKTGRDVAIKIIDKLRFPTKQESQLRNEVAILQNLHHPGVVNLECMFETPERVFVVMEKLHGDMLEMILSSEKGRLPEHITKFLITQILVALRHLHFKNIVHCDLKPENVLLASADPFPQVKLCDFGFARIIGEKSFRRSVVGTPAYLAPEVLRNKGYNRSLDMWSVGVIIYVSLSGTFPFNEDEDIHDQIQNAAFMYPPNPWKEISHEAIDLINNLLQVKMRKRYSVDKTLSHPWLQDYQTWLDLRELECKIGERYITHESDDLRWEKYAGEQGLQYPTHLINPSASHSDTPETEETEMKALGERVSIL

[3] = biological target: T3, Serine/threonine-protein kinase Sgk1 (Homo sapiens) (UniProt O00141); conditions: 0.1 uM
T3 sequence (whole entry): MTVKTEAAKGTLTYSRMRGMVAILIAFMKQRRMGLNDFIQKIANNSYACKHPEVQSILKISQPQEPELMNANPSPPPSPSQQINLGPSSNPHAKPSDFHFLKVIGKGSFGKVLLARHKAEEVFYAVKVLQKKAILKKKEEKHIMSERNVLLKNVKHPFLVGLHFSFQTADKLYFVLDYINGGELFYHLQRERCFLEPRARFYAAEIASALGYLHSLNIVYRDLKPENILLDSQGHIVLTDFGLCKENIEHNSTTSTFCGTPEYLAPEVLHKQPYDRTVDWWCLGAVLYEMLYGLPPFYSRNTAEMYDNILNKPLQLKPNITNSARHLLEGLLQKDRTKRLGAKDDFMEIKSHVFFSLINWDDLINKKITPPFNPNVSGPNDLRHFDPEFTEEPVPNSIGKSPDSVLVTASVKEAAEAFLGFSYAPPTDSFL
Description: Inhibition of human truncated SGK1 expressed in baculovirus assessed as substrate phosphorylation using fluorescence-labelled peptides as substrate at 0.1 uM after 90 mins by microfluidic peptide phosphorylation assay

[4] = biological target: Insulin receptor (Homo sapiens) (UniProt P06213); conditions: 0.1 uM
Description: Inhibition of human INSR catalytic domain expressed in baculovirus assessed as substrate phosphorylation using fluorescence-labelled peptides as substrate at 0.1 uM after 90 mins by microfluidic peptide phosphorylation assay

[5] = biological target: Calcium/calmodulin-dependent protein kinase type II subunit delta (Homo sapiens) (UniProt Q13557); conditions: 0.1 uM
Description: Inhibition of human full length CAMK2D expressed in baculovirus assessed as substrate phosphorylation using fluorescence-labelled peptides as substrate at 0.1 uM after 90 mins by microfluidic peptide phosphorylation assay

[6] = biological target: Epidermal growth factor receptor (Homo sapiens) (UniProt P00533); assay: Inhibition of human EGFR catalytic domain expressed in baculovirus assessed as substrate phosphorylation using fluorescence-labelled peptides as substrate at 70 uM after 90 mins by microfluidic peptide phosphorylation assay
[7] = biological target: RAF proto-oncogene serine/threonine-protein kinase (Homo sapiens) (UniProt P04049); assay: Inhibition of human truncated c-Raf expressed in baculovirus assessed as substrate phosphorylation using fluorescence-labelled peptides as substrate at 70 uM after 90 mins by microfluidic peptide phosphorylation assay
[8] = biological target: Calcium/calmodulin-dependent protein kinase type II subunit delta (Homo sapiens) (UniProt Q13557); assay: Inhibition of human full length CAMK2D expressed in baculovirus assessed as substrate phosphorylation using fluorescence-labelled peptides as substrate at 8 uM after 90 mins by microfluidic peptide phosphorylation assay
[9] = biological target: T4, Serine/threonine-protein kinase Nek2 (Homo sapiens) (UniProt P51955); assay: Inhibition of human full length NEK2 expressed in baculovirus assessed as substrate phosphorylation using fluorescence-labelled peptides as substrate at 8 uM after 90 mins by microfluidic peptide phosphorylation assay
T4 sequence (whole entry): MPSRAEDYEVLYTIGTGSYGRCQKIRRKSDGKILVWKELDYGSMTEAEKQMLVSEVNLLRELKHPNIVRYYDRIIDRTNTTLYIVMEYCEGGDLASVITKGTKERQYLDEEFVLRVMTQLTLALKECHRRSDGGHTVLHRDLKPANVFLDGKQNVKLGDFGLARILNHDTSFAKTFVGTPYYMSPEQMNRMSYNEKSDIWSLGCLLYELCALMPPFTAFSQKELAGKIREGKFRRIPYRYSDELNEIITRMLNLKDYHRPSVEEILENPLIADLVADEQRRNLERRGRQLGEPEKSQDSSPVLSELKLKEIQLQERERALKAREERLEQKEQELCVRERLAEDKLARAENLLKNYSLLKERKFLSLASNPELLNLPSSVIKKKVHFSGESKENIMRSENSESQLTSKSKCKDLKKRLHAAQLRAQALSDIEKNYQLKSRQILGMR

[10] = biological target: Glycogen synthase kinase-3 beta (Homo sapiens) (UniProt P49841); assay: Inhibition of human full length GSK-3 beta expressed in baculovirus assessed as substrate phosphorylation using fluorescence-labelled peptides as substrate at 2 uM after 90 mins by microfluidic peptide phosphorylation assay
Glycogen synthase kinase-3 beta (Homo sapiens), sequence (P49841 whole entry, looked up): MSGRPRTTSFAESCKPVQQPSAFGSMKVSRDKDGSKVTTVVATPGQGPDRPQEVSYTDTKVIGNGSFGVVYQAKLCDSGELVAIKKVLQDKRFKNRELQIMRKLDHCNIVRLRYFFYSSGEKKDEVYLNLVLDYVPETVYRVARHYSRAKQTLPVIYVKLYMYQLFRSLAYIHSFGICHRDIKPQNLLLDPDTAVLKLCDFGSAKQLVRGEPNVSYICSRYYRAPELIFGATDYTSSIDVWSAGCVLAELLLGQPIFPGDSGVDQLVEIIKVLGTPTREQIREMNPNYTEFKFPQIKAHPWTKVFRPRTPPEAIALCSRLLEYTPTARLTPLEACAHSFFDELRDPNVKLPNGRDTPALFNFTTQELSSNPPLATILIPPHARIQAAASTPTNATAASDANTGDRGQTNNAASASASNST

Calcium/calmodulin-dependent protein kinase type II subunit delta (Homo sapiens), sequence (Q13557 whole entry, the tested form may be a part): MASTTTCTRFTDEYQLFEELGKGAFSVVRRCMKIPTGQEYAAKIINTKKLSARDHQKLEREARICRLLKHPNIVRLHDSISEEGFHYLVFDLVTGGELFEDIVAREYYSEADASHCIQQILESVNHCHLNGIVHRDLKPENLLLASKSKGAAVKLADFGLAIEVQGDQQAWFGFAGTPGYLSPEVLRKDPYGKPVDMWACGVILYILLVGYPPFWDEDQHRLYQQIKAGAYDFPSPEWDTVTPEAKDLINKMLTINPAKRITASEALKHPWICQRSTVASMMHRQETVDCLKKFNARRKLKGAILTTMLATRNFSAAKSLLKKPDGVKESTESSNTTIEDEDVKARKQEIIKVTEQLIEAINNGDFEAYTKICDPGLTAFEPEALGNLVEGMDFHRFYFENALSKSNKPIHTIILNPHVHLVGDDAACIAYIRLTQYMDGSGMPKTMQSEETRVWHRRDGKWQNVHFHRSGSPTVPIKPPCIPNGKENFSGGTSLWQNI
RAF proto-oncogene serine/threonine-protein kinase (Homo sapiens), sequence (P04049 whole entry, the tested form may be a part): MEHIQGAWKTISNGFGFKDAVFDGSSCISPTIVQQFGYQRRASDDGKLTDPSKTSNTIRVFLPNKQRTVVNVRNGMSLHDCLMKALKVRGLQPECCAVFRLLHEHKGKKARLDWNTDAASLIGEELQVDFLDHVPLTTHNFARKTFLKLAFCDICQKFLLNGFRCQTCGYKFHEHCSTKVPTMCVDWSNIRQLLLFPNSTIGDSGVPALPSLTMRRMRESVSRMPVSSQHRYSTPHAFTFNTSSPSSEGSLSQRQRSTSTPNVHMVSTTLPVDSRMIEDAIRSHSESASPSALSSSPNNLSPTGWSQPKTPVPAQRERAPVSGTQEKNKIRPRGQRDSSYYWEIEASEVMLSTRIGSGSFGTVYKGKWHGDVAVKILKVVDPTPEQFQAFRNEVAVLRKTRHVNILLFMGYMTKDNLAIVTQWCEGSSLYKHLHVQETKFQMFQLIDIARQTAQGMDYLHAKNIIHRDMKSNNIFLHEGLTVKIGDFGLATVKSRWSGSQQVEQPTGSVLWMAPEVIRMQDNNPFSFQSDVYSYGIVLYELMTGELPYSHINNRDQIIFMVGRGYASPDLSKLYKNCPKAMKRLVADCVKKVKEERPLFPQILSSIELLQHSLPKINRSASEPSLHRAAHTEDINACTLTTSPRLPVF
Epidermal growth factor receptor (Homo sapiens), sequence (P00533 whole entry, the tested form may be a part): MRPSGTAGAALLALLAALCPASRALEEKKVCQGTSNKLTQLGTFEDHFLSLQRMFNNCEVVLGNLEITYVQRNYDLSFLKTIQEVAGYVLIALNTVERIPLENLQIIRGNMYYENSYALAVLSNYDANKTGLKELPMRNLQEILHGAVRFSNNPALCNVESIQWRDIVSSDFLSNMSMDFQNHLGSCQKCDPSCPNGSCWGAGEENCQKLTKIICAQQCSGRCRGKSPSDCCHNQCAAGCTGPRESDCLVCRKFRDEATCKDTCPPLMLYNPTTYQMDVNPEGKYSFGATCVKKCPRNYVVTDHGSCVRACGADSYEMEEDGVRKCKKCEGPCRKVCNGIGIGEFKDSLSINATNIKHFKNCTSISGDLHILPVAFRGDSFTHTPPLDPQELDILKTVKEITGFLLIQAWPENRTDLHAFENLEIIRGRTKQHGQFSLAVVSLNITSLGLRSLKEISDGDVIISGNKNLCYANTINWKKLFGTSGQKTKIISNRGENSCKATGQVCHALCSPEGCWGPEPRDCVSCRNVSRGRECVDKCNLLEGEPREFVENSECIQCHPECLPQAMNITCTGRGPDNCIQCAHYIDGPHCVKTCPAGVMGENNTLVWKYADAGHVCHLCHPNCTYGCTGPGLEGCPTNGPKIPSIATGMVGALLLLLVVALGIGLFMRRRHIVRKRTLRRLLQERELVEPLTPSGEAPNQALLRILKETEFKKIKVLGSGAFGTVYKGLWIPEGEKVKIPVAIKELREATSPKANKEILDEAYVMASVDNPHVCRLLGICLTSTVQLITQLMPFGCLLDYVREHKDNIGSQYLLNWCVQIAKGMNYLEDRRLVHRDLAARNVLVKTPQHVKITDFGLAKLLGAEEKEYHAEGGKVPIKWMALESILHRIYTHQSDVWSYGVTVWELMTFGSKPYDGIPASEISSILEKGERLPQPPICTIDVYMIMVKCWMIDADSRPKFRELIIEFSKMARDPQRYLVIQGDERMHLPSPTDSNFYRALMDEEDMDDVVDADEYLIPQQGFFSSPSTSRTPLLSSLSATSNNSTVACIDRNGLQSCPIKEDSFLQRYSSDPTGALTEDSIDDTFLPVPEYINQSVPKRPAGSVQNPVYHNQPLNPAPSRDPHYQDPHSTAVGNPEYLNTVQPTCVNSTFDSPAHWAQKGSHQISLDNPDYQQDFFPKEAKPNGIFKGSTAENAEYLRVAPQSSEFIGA

## Clc1ccc(C2(c3ccc(-c4ncnc5[nH]cnc45)cc3)CCNCC2)cc1
[1]
  inhibition: 11%
[2]
  inhibition: 8%

## C[C@H](CN(C)C)Oc1nc(Nc2cc3cccc(Cl)c3cn2)cnc1C#N
[3]
  inhibition: 0%
[4]
  inhibition: 0%
[5]
  inhibition: 0%

## CNCc1ccc(-c2ncnc3[nH]cnc23)cc1
[6]
  inhibition: 16.5%
[7]
  inhibition: 39.5%

## NCC1CCN(c2ncnc3[nH]ccc23)CC1
[8]
  inhibition: 25%
[9]
  inhibition: 0%

## NC1CCN(c2ncnc3[nH]ccc23)CC1
[10]
  inhibition: 5%
